Reference: patent US6844004B2, “Topical formulations of natamycin/pimaricin” (Board of Regents, The University of Texas System, priority 1997, dated 2005)
Converted amounts (≈) assume the structure as drawn.

Columns and labels:
[1] = surface in contact with AMB; cited from earlier work
[2] = assay type: physicochemical
Procedure: Stability of the various Natamycin formulations. To study the physical and chemical stability of the various parenteral formulations, three sets of studies were performed: • (a) Natamycin was dissolved at a concentration of 100-300 mg/ml in HAc (“stock solution”) and incubated at 4° C., at 22° C. and at 40° C. The drug concentration was analyzed by HPLC in samples taken immediately after solubilization and after gradually increasing time intervals of up to 48 hours. • (b) The Natamycin-HAc stock solution was diluted with PEG/water (1:1:1, v:v:v, HAc:PEG:water), or PG/DMSO (1:1:1, v:v:v), or PG/DMSO/PEG (1:1:1:1, v:v:v:v), or aqueous lipid emulsion (1:10 and 1:100, v:v, HAc:Intralipid™), to yield Natamycin concentrations ranging from 1-50 mg/ml. • (c) The HAc-Natamycin mixture was diluted in NS or 5% dextrose to a drug concentration of 1 mg/ml. (d) The HAc-Natamycin mixture was blended with DMSO and Intralipid™, or directly in Intralipid™.
The various formulations were analyzed by HPLC immediately after mixing, then hourly for 8 hours, and then at gradually increasing time intervals up to several weeks, depending on the rate of degradation in the respective solvent system.
The temperature-dependent stability of solubilized Natamycin in the different solvent systems was studied as follows: The drug was dissolved in HAc at 100 mg/ml, and different aliquots were stored at 4° C., at 22° C., and at 40° C. Immediately after solubilization and at various intervals up to 48 hours later, aliquots from the different samples were analyzed by HPLC. The drug samples stored at 4° C. and at 22° C. degraded slower than those stored at higher temperatures: at 40° C. the Natamycin started degrading within 1 hour after the start of incubation, and at RT there was a loss of 5-10% in the first 4 hours.

physchem = assay type: physicochemical; settings: 22 °C, organic solvent or mixture, thermodynamic from solid
Procedure: Natamycin solubility was determined in several individual vehicles (see Table I). Briefly, a known amount of the drug, as a powder (different lots of purified drug were obtained from Gist-Brocades N.V., Netherlands, and from Sigma Chemical Company, St Louis, Mo.), was equilibrated in the respective solvent at RT (22° C.) over 5 min to 4 hours. An aliquot was then removed and diluted in MeOH prior to HPLC at predetermined times. Based on the Natamycin solubility in these particular vehicles, the inventors attempted to enhance the solubility by mixing different solvents according to the principle of cosolvency (Spiegel and Noseworthy, 1963; Yalkowsky and Roseman, 1981). Several different solvent systems were evaluated relative to the above estimates of necessary solubility to arrive at a clinically relevant optimal stock formulation. […] The “final solvent” is preferably one of the commonly available ointment bases, such as petroleum jelly, cocoa butter, Aquaphor™, all of which are readily available and commonly used for topical administration, either for moisturizing purpose or for dissolving various chemically active compounds.
Solubility Studies. […] Samples of 1 ml were taken at various time intervals, and filtered through a 0.45 μm PTFE™ membrane filter fitted to a syringe assembly (Whatman Inc.), and after appropriate dilution, the Natamycin concentration was determined by HPLC.

[3] = system: tested strains of Candida spp.; test: Antifungal sensitivity (MIC); assay type: cell-based; settings: all tested strains of Candida spp.
Procedure: (§1) Methodology. The antifungal activity of Natamycin was compared with that of amphotericin B utilizing a previously described assay (Anaissie et al., 1991). Briefly, serial dilutions of Natamycin and AMB were mixed in RPMI growth medium with L-glutamine and MOPS-buffer, pH 7.0 (Sigma Chemical Co., St. Louis, Mo.). The different strains of Candida, Aspergillus and Fusarium spp. were then added to the dishes. After incubation at 35° C. for 48 to 72 hours the plates were evaluated for fungal proliferation. The used fungal strains were obtained from the ATCC or isolated from patients, primarily at the MD Anderson Cancer Center. The Natamycin concentrations in the used solutions were assayed with HPLC to assure the highest possible reproducibility of the drug concentrations.

[4] = system: tested strains of Fusarium; test: Antifungal sensitivity (MIC); assay type: cell-based; settings: all tested strains of Fusarium
Procedure: as §1

A. flavus = test: Antifungal sensitivity (MIC); assay type: cell-based; settings: Aspergillus flavus; the tested A. flavus
Procedure: as §1

[5] = system: Aspergillus strains, except for A. flavus; test: Antifungal sensitivity (MIC); assay type: cell-based; settings: all Aspergillus strains except A. flavus
Procedure: as §1

Compound	inflammation of the mucosal surface, share of treated subjects [1]	loss of drug (degradation) ([2]; 100 mg/ml)	time to start of degradation ([2]; 100 mg/ml)	time until degradation apparent ([2]; 100 mg/ml)	time stable (by HPLC) ([2]; HAc and DMSO primary solvent, Intralipid, lyophilized, reconstituted to 10 mg/ml with distilled water, RT)	time stable ([2]; HAc-Natamycin stock diluted with 20% Intralipid to 10-50 mg/ml)	solubility thermodynamic (physchem)	MIC (sensitive in the range) [3]	MIC (sensitive in the range) [4]	MIC (A. flavus)	MIC [5]
C[C@@H]1[C@H](O)[C@@H](C)/C=C/C=C/C=C/C=C/C=C/C=C/C=C/[C@H](O[C@@H]2O[C@H](C)[C@@H](O)[C@H](N)[C@@H]2O)C[C@@H]2O[C@](O)(C[C@@H](O)C[C@@H](O)[C@H](O)CC[C@@H](O)C[C@@H](O)CC(=O)O[C@H]1C)C[C@H](O)[C@H]2C(=O)O [AMB, Amphotericin B]	> 75%	–	–	–	–	–	–	–	–	–	–
C[C@@H]1C/C=C/C=C/C=C/C=C/[C@H](O[C@@H]2O[C@H](C)[C@@H](O)[C@H](N)[C@@H]2O)C[C@@H]2O[C@](O)(C[C@@H](O)C[C@H]3O[C@@H]3/C=C/C(=O)O1)C[C@H](O)[C@H]2C(=O)O [Natamycin, Pimaricin]	–	5-10%	≤ 1 h	8 to 12 h	more than 24 hours	more than 6 weeks	> 100 mg/mL	2 to 4 µg/mL	2 to 4 µg/mL	16 µg/mL (≈ 24 µM)	2 to 4 µg/mL (≈ 3 to 6.01 µM)
